Experimental data reported in patent US12600732B2, “Bifunctional compounds for degrading BTK via ubiquitin proteosome pathway” (NURIX THERAPEUTICS, INC., priority 2019, dated 2026).
“And” between values parts separate entries of the source, which are not always exact repeats. Equal entries are not always repeated. Where two headings read alike, the source gives them in different places.

How the values were obtained:
Rec-1 cells = assay: Cell viability assay (CellTiter-Glo), Rec-1 cells; assay type: cell-based
Description: (§1) This example evaluates effects of CTM-mediated degradation on cell viability. […] Mino and Rec-1 are models of Mantle Cell Lymphoma, which is sensitive to IMiDs.

primary human T cells [1] = assay: T cell activation assay, IL-2 secretion (ELISA); assay type: cell-based
Procedure: (§2) This example evaluates whether CTMs with IMiD activity affect T cell activation. […] These assays were performed to assess whether BTK CTMs with and without IMiD activity affected activation of primary human T cells after stimulation of the T cell receptor with anti-CD3/ati-CD28 stimulation. T cell activation was measured by IL-2 secretion (ELISA assay) and upregulation of activation markers CD25 and CD69 on the surface of T cells (flow cytometry). Data are presented as the fold-change of response relative to baseline (stimulation with anti-CD3/anti-CD28 stimulation in the absence of compound).

TMD8 C481S cells = assay: Cell viability assay (CellTiter-Glo), TMD8 C481S cells; details: for EC50: Homo sapiens, TMD8, 72 h; for EMAX (% viable cells): TMD8 C481S cells, treatment time 72 h
primary human T cells [2] = assay: T cell activation assay, CD25 and CD69 staining (flow cytometry); assay type: cell-based; details: fold-change of response relative to baseline
Procedure: as §2

TMD8 cells = assay: Cell viability assay (CellTiter-Glo), TMD8 cells; details: for EC50: Homo sapiens, TMD8, 72 h; for EMAX (% viable cells): TMD8 cells, treatment time 72 h
Mino cells = assay: Cell viability assay (CellTiter-Glo), Mino cells; assay type: cell-based; details: Mino cells, treatment time 72 h
Description: as §1

BTK [3] = target: BTK (Homo sapiens, UniProt Q06187); assay: BTK remaining in TMD8 WT mouse xenograft study; assay type: in vivo; parameters: from tissue; host or cells: TMD8 xenograft in CB.17 SCID mice; details: QD
Description: Efficacy in Mouse Xenograft Models
(§3) This example examines the activity of various BTK CTMs in relevant disease models, including the WT and C481S TMD8 model, which models B cell malignancies with/without inhibitor-driven BTK mutations at C481.

[4] = system: B cell receptor (BCR) signaling; assay: B cell activation assay (flow cytometry), mouse B cells; assay type: cell-based; details: treatment 4 h, IgM stimulation 18 h
Procedure: Compound was present throughout the stimulation. Cells were stained with Live/Dead dye (Fisher L34976) and then fluorophore-conjugated antibodies against CD20 (Biolegend 302330), CD3 (BD Pharmingen 557705), CD86 (Biolegend 305416) and CD69 (Biolegend 310906). Stained cells were fixed in PFA and run on an Attune N×T Acoustic Focusing Flow Cytometer (Thermo-Fisher A29004), and data was analyzed using FlowJo (v10.5.3) and GraphPad Prism (v7.00) software. Single live lymphocytes were gated for B cells (CD20+CD3−) and T cells (CD3+CD20−), and the geometric mean fluorescence intensity (MFI) of CD86 and CD69 was calculated for each population. The MFI of the unstimulated sample was used to quantify baseline activation.
This example evaluates whether CTM treatment affects B cell receptor (BCR) signaling. BTK is activated downstream of the B cell receptor and leads to upregulation of activation markers CD86 and CD69 on the surface of B cells.

BTK C481S = BTK C481S (Homo sapiens, UniProt Q06187, C481S); assay: BTK degradation (Total BTK HTRF) in TMD8 cells expressing BTK-C481S; assay type: cell-based; parameters: endogenous in cells; host or cells: TMD8 BTK-C481S (clone2C3), Cas9 RNP knock-in; details: TMD8 BTK-C481S (clone2C3) cells, treatment time 4 h
Procedure: BTK levels were determined using Cisbio Total-BTK HTRF (Homologous Time-Resolved Fluorescence) kit (63ADK064PEG) according to the manufacturer's protocol. Briefly, cells were incubated in 1× supplied lysis buffer for 30 minutes. In an opaque white low volume 96-well plate (Cisbio, 66PL96005), cell lysate was combined with two different specific BTK antibodies, one conjugated with Eu^3+-Cryptate FRET donor and one conjugated with d2 FRET acceptor. Assay controls include wells containing cell lysate with only the Eu^3+-Cryptate FRET donor antibody and wells containing both HTRF antibodies and lysis buffer without cells or control lysate provided by Cisbio. HTRF ratio was calculated as (acceptor signal at 665 nm/donor signal at 620 nm)×10^4. Background HTRF levels were determined from the control well containing the donor, but no acceptor, antibody. Background HTRF levels were subtracted from all samples. Readouts were reported as HTRF levels relative to HTRF levels of DMSO-treated cells. Four-parameter non-linear regressions were performed in GraphPad Prism 7.02 to obtain DC50 values.
BTK Degradation (Total BTK HTRF) at Four Hours in TMD8 Cells Expressing BTK-C481S
This example evaluates the potency of CTM in degrading […]. The BTK binding moieties utilized in CTMs bind to the BTK active site. This example evaluates whether the active site mutation C481S affects CTM-induced degradation of BTK.

[5] = PK data for BTK CTMs (in vivo plasma concentrations); details: for Vd: read-out: Volume of Distribution
Description: The present example evaluates in vivo plasma concentrations of BTK CTMs to develop PK-PD-efficacy relationship and predict human exposure.

TMD8 tumor cells = assay: TMD8 xenograft efficacy study (wild-type BTK); assay type: in vivo, mouse; details: TMD8 WT, QD
Procedure: […] Tumor growth inhibition (% TGI) were calculated on the final day of measurement using the equation [1−(T−T0/C−T0)]×100, where T and C represent the mean size of tumors in the treated (T) and control (C) groups, and T0 refers to the tumor size at randomization.
as §3

BTK [6] = target: T1, BTK (Mus musculus, UniProt P35991); assay: In vivo degradation of BTK in mouse PD experiments with oral dosing
T1 construct: from tissue; host or cells: mouse blood B cells / splenocytes (CD-1 or BALB/c)
Outline: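 CD-1 or BALB/c mice dosed by oral gavage, screens at 90 mg/kg for 6 h, later at lower doses/longer times. Blood or splenocyte BTK measured by intracellular flow cytometry (or HTRF); % degradation from B-cell minus T-cell BTK geometric MFI, relative to vehicle.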

[7] = 1.4 nM, fold-change of response relative to baseline
[8] = 37 nM, fold-change of response relative to baseline
[9] = 333 nM, fold-change of response relative to baseline (stimulation without compound)
[10] = PO, 30 mg/kg, 21 days of dosing
[11] = oral dose 3 mg/kg, 6 h, blood, flow cytometry
[12] = oral dose 3 mg/kg, 24 h, blood, flow cytometry
[13] = IP, 10 mg/kg, 14 days of dosing
[14] = IP, 30 mg/kg, 14 days of dosing
[15] = IP, 30 mg/kg, 21 days of dosing
[16] = Rat Sprague-Dawley, 10 mg/kg PO

SMILES	IL-2 Secretion Anti-CD3/Anti-CD28 Stimulation (primary human T cells [1]; [7])	IL-2 Secretion Anti-CD3/Anti-CD28 Stimulation (primary human T cells [1]; [8])	IL-2 Secretion Anti-CD3/Anti-CD28 Stimulation (primary human T cells [1]; [9])	EC50 (TMD8 C481S cells) [nM]	EMAX (% viable cells) (TMD8 C481S cells) [%]	CD25 Staining Anti-CD3/Anti-CD28 Stimulation (primary human T cells [2]; 1.4 nM)	CD69 Staining Anti-CD3/Anti-CD28 Stimulation (primary human T cells [2]; 1.4 nM)	CD25 Staining Anti-CD3/Anti-CD28 Stimulation (primary human T cells [2]; 37 nM)	CD69 Staining Anti-CD3/Anti-CD28 Stimulation (primary human T cells [2]; 37 nM)	CD25 Staining Anti-CD3/Anti-CD28 Stimulation (primary human T cells [2]; 333 nM)	CD69 Staining Anti-CD3/Anti-CD28 Stimulation (primary human T cells [2]; 333 nM)	EC50 (TMD8 cells) [nM]	EMAX (% viable cells) (TMD8 cells) [%]	BTK Remaining (% relative to vehicle) (BTK [3]; [10]) [%]	DC50 (BTK C481S) [nM]	AUC ([5]; Mouse Balb/c, 1 mg/kg IV) [µM·h]	clearance ([5]; Mouse Balb/c, 1 mg/kg IV) [mL/min/kg]	Vd ([5]; Mouse Balb/c, 1 mg/kg IV) [L/kg]	AUC ([5]; Mouse Balb/c, 30 mg/kg PO) [µM·h]	bioavailability ([5]; Mouse Balb/c, 30 mg/kg PO) [%]	further results
C=CC(=O)N1CCC[C@@H](n2nc(-c3ccc(Oc4ccccc4)cc3)c3c(N)ncnc32)C1 [Ibrutinib, reference compound]	0.84	0.85	0.34	1040	46	0.92	0.89	0.74	0.74	0.22	0.22	3	16								EC50 (Rec-1 cells; Homo sapiens, Rec1, treatment time 72 h): 268 nM; EMAX (% viable cells) (Rec-1 cells; treatment time 72 h): 68%; EC50 (Mino cells; Homo sapiens): 498 nM; EMAX (% viable cells) (Mino cells): 79%
CN1CCN([C@H]2CCCN(c3cnc(C(N)=O)c(Nc4cnn(C5CCN(CC6CCN(c7ccc8c(c7)C(=O)N(C7CCC(=O)NC7=O)C8=O)CC6)CC5)c4)n3)C2)C1=O (some centres unmarked) [Compound 83]				4.32	52							1.66	38	22	2.7	0.29	68.3	4	0.81	9	EC50 ([4]; read-out: CD69 EC50): 0.08 nM; EC50 ([4]; read-out: CD86 EC50): 0.1 nM; Tumor Growth Inhibition (relative to vehicle) (TMD8 tumor cells; [10]): 39%; % BTK Remaining (BTK [6]; [11]): 48%; % BTK Remaining (BTK [6]; [12]): 63%
CN1CCN([C@@H]2CCCN(c3cnc(C(N)=O)c(Nc4ccc(N5CCC6(CC5)CCN(c5ccc7c(c5)C(=O)N(C5CCC(=O)NC5=O)C7=O)CC6)cc4)n3)C2)C1=O (some centres unmarked) [Compound 55]				16.8	19							2.4	15	27	5.8	8.64	2.4	0.48	74.3	29	Tumor Growth Inhibition (relative to vehicle) (TMD8 tumor cells; [10]): 17%; % BTK Remaining (BTK [6]; oral dose 0.3 mg/kg, 24 h, blood, flow cytometry): 83%; % BTK Remaining (BTK [6]; oral dose 0.3 mg/kg, 24 h, splenocytes, flow cytometry): 114%; % BTK Remaining (BTK [6]; oral dose 1 mg/kg, 6 h, splenocytes, HTRF, 1 mg/kg): 80% and 66%; % BTK Remaining (BTK [6]; oral dose 3 mg/kg, 6 h, splenocytes, HTRF): 18%; % BTK Remaining (BTK [6]; [12]): 55%; % BTK Remaining (BTK [6]; oral dose 3 mg/kg, 24 h, splenocytes, flow cytometry): 72%; % BTK Remaining (BTK [6]; oral dose 10 mg/kg, 24 h, blood, flow cytometry): 47%; % BTK Remaining (BTK [6]; oral dose 10 mg/kg, 24 h, splenocytes, flow cytometry): 45%; % BTK Remaining (BTK [6]; oral dose 30 mg/kg, 24 h, blood, flow cytometry): 39%; % BTK Remaining (BTK [6]; oral dose 30 mg/kg, 24 h, splenocytes, flow cytometry): 36%; % BTK Remaining (BTK [6]; oral dose 90 mg/kg, 24 h, blood, flow cytometry): 23%; % BTK Remaining (BTK [6]; oral dose 90 mg/kg, 24 h, splenocytes, flow cytometry): 48%
CN1CCN([C@@H]2CCCN(c3cnc(C(N)=O)c(Nc4ccc(N5CCN(CCCCc6cccc7c6CN(C6CCC(=O)NC6=O)C7=O)CC5)cc4)n3)C2)C1=O (some centres unmarked) [Compound 17]	1.59	3.14	2.92	3.71	15	1.06	1.05	1.34	1.23	1.11	1.12	0.6	7								BTK Remaining (% relative to vehicle) (BTK [3]; [13]): 20%; BTK Remaining (% relative to vehicle) (BTK [3]; [14]): 15%; BTK Remaining (% relative to vehicle) (BTK [3]; [15]): 7%; Tumor Growth Inhibition (relative to vehicle) (TMD8 tumor cells; [13]): 14%; Tumor Growth Inhibition (relative to vehicle) (TMD8 tumor cells; [14]): 66%; Tumor Growth Inhibition (relative to vehicle) (TMD8 tumor cells; [15]): 81%
CN1CCN([C@@H]2CCCN(c3cnc(C(N)=O)c(Nc4ccc(C5CCN(C6CN(c7ccc8c(c7)C(=O)N(C7CCC(=O)NC7=O)C8=O)C6)CC5)cc4)n3)C2)C1=O (some centres unmarked) [Compound 53]	1.22	2.08	2.53	16.1	24	1.09	1.06	1.14	1.07	0.84	0.83	2.24	16	19	8	2.75	7.5	0.88	96	113	AUC ([5]; Rat Sprague-Dawley, 1 mg/kg IV): 0.31 µM·h; clearance ([5]; Rat Sprague-Dawley, 1 mg/kg IV): 75 mL/min/kg; Vd ([5]; Rat Sprague-Dawley, 1 mg/kg IV): 5.9 L/kg; AUC [5, 16]: 2.3 µM·h; bioavailability [5, 16]: 97%; Tumor Growth Inhibition (relative to vehicle) (TMD8 tumor cells; [10]): 27%; % BTK Remaining (BTK [6]; [11]): 35%; % BTK Remaining (BTK [6]; [12]): 56%
